Measured values reported in PubChem BioAssay AID248 (DTP/NCI, 2004).
Where “and” joins values, the source holds several entries; their conditions need not be identical. Identical values can stand only once. Toxic doses and inconclusive results are not listed. No stated cut-off is given here; in the data, active means T/C of 150% or more; inactive means T/C below 125%.

Tested on: L1210 leukemia ip in BDF1 mice, survival T/C
Assay: NCI In Vivo Anticancer Drug Screen. Data for tumor model L1210 Leukemia (intraperitoneal) in B6D2F1 (BDF1) mice
Details: endpoint: mean survival time, higher = longer survival
Outline: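 Each compound was tested against a transplantable tumor grown in mice. The endpoint was survival, with treated animals benchmarked against vehicle controls as a simple ratio.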

[1] = dose: 75.0 mg/kg/injection, schedule: Q01DX001 (ip), vehicle: other
[2] = dose: 150.0 mg/kg/injection, schedule: Q01DX001 (ip), vehicle: other
[3] = dose: 25.0 mg/kg/injection, schedule: Q01DX001 (ip), vehicle: saline with Tween-80
[4] = dose: 100.0 mg/kg/injection, schedule: Q01DX009 (ip), vehicle: Klucel (hydroxypropylcellulose) (HPC)
[5] = dose: 200.0 mg/kg/injection, schedule: Q01DX009 (ip), vehicle: Klucel (hydroxypropylcellulose) (HPC)
[6] = dose: 400.0 mg/kg/injection, schedule: Q01DX009 (ip), vehicle: Klucel (hydroxypropylcellulose) (HPC)
[7] = dose: 100.0 mg/kg/injection, schedule: Q04DX003 (ip), vehicle: Klucel (hydroxypropylcellulose) (HPC)
[8] = dose: 200.0 mg/kg/injection, schedule: Q04DX003 (ip), vehicle: Klucel (hydroxypropylcellulose) (HPC)
[9] = dose: 400.0 mg/kg/injection, schedule: Q04DX003 (ip), vehicle: Klucel (hydroxypropylcellulose) (HPC)
[10] = dose: 100.0 mg/kg/injection, schedule: Q01DX001 (ip), vehicle: saline
[11] = dose: 200.0 mg/kg/injection, schedule: Q01DX001 (ip), vehicle: saline
[12] = dose: 100.0 mg/kg/injection, schedule: Q04DX003 (ip), vehicle: saline
[13] = dose: 200.0 mg/kg/injection, schedule: Q04DX003 (ip), vehicle: saline
[14] = dose: 100.0 mg/kg/injection, schedule: Q01DX001 (ip), vehicle: other
[15] = dose: 400.0 mg/kg/injection, schedule: Q01DX001 (ip), vehicle: other

Measured: T/C

O=C1C=C(S(=O)(=O)c2ccccc2)C(=O)c2ccccc21
inactive: [1] 93 % of control | [2] 98 % of control

Cc1nc(N)[nH]c(=O)c1CCCN(c1ccccc1)S(=O)(=O)c1ccc([N+](=O)[O-])cc1
inactive: dose: 6.25 mg/kg/injection, schedule: Q01DX001 (ip), vehicle: saline with Tween-80 104 % of control | dose: 12.5 mg/kg/injection, schedule: Q01DX001 (ip), vehicle: saline with Tween-80 100 % of control | [3] 98 % of control

CC(Cl)CN(CC(C)Cl)c1ccc(S(=O)(=O)Nc2ncccn2)cc1 (stereo unspecified)
inactive: dose: 5.0 mg/kg/injection, schedule: Q01DX009 (ip), vehicle: gum acacia 107 % of control | dose: 5.0 mg/kg/injection, schedule: Q01DX009 (ip), vehicle: saline 104 % of control | dose: 8.0 mg/kg/injection, schedule: Q01DX009 (ip), vehicle: gum acacia 100 % of control | dose: 10.0 mg/kg/injection, schedule: Q01DX009 (ip), vehicle: saline 98 % of control | dose: 12.0 mg/kg/injection, schedule: Q01DX009 (ip), vehicle: gum acacia 96 % of control | dose: 20.0 mg/kg/injection, schedule: Q01DX009 (ip), vehicle: saline 105 % of control | dose: 30.0 mg/kg/injection, schedule: Q01DX009 (ip), vehicle: saline 111 % of control | dose: 45.0 mg/kg/injection, schedule: Q01DX009 (ip), vehicle: saline 114 % of control and 117 % of control | dose: 80.0 mg/kg/injection, schedule: Q01DX009 (ip), vehicle: other 122 % of control | dose: 80.0 mg/kg/injection, schedule: Q01DX009 (ip), vehicle: saline with Tween-80 123 % of control | dose: 80.0 mg/kg/injection, schedule: Q01DX009 (ip), vehicle: saline 106 % of control and 108 % of control | dose: 90.0 mg/kg/injection, schedule: Q01DX009 (ip), vehicle: saline 120 % of control | dose: 120.0 mg/kg/injection, schedule: Q01DX009 (ip), vehicle: other 121 % of control | dose: 120.0 mg/kg/injection, schedule: Q01DX009 (ip), vehicle: saline 111 % of control | dose: 180.0 mg/kg/injection, schedule: Q01DX009 (ip), vehicle: other 98 % of control

Cc1cc(C)c(C#N)c(=O)[nH]1
inactive: [4] 97 % of control | dose: 100.0 mg/kg/injection, schedule: Q04DX002 (ip), vehicle: Klucel (hydroxypropylcellulose) (HPC) 100 % of control | [5] 97 % of control | dose: 200.0 mg/kg/injection, schedule: Q04DX002 (ip), vehicle: Klucel (hydroxypropylcellulose) (HPC) 92 % of control | [6] 88 % of control | dose: 400.0 mg/kg/injection, schedule: Q04DX002 (ip), vehicle: Klucel (hydroxypropylcellulose) (HPC) 95 % of control

CC1(C)OC(=O)C2C3CCC(C2C(=O)O)C31 (stereo unspecified)
inactive: [7] 100 % of control | [8] 96 % of control | [9] 100 % of control

CC(CC(=O)c1ccc(F)cc1)N1CCOCC1 (stereo unspecified)
inactive: [10] 92 % of control | [11] 90 % of control

N#CCN1C(=O)c2ccccc2C1=O
inactive: dose: 12.5 mg/kg/injection, schedule: Q01DX009 (ip), vehicle: Klucel (hydroxypropylcellulose) (HPC) 96 % of control | dose: 12.5 mg/kg/injection, schedule: Q04DX003 (ip), vehicle: Klucel (hydroxypropylcellulose) (HPC) 100 % of control | dose: 25.0 mg/kg/injection, schedule: Q01DX009 (ip), vehicle: Klucel (hydroxypropylcellulose) (HPC) 101 % of control | dose: 25.0 mg/kg/injection, schedule: Q04DX003 (ip), vehicle: Klucel (hydroxypropylcellulose) (HPC) 98 % of control | dose: 50.0 mg/kg/injection, schedule: Q04DX003 (ip), vehicle: Klucel (hydroxypropylcellulose) (HPC) 100 % of control | [1] 107 % of control

CN(C)c1ccc(N=C(C#N)C#N)cc1
inactive: [1] 89 % of control | [2] 95 % of control

NC(NCCN1CC1)(C(F)(F)F)C(F)(F)F
inactive: dose: 10.0 mg/kg/injection, schedule: Q04DX003 (ip), vehicle: Klucel (hydroxypropylcellulose) (HPC) 109 % of control | dose: 20.0 mg/kg/injection, schedule: Q01DX001 (ip), vehicle: Klucel (hydroxypropylcellulose) (HPC) 105 % of control | dose: 20.0 mg/kg/injection, schedule: Q04DX003 (ip), vehicle: Klucel (hydroxypropylcellulose) (HPC) 104 % of control | dose: 40.0 mg/kg/injection, schedule: Q01DX001 (ip), vehicle: Klucel (hydroxypropylcellulose) (HPC) 101 % of control | dose: 40.0 mg/kg/injection, schedule: Q04DX003 (ip), vehicle: Klucel (hydroxypropylcellulose) (HPC) 109 % of control

Cc1ccc(N=Nc2ccc(C)cc2NC(=O)Nc2ccccc2F)cc1
inactive: [4] 104 % of control | [5] 97 % of control | [6] 88 % of control

COC(=O)CS(=O)(=O)C(C)(C)C(=O)c1ccccc1
inactive: dose: 37.5 mg/kg/injection, schedule: Q01DX009 (ip), vehicle: saline 96 % of control | dose: 75.0 mg/kg/injection, schedule: Q01DX009 (ip), vehicle: saline 92 % of control | dose: 150.0 mg/kg/injection, schedule: Q01DX009 (ip), vehicle: saline 100 % of control | dose: 300.0 mg/kg/injection, schedule: Q01DX009 (ip), vehicle: saline 94 % of control

COc1ccc(Cc2c3cc(OC)c(OC)cc3cc[n+]2[O-])cc1OC
inactive: [10] 91 % of control | [11] 96 % of control | dose: 400.0 mg/kg/injection, schedule: Q01DX001 (ip), vehicle: saline 96 % of control

C[n+]1ccc2ccccc2c1
inactive: dose: 50.0 mg/kg/injection, schedule: Q01DX009 (ip), vehicle: saline 105 % of control | dose: 50.0 mg/kg/injection, schedule: Q04DX003 (ip), vehicle: saline 105 % of control | dose: 100.0 mg/kg/injection, schedule: Q01DX009 (ip), vehicle: saline 100 % of control | [12] 101 % of control | dose: 200.0 mg/kg/injection, schedule: Q01DX009 (ip), vehicle: saline 107 % of control | [13] 106 % of control

CC(C)CC(NS(=O)(=O)Cc1ccccc1)C(=O)O (stereo unspecified)
inactive: [14] 105 % of control | dose: 200.0 mg/kg/injection, schedule: Q01DX001 (ip), vehicle: other 107 % of control | [15] 96 % of control

CC1(C)OCC2OC(N)C(O)C2O1 (stereo unspecified)
inactive: [12] 100 % of control | [13] 89 % of control | dose: 400.0 mg/kg/injection, schedule: Q04DX003 (ip), vehicle: saline 98 % of control

O=c1[nH]c(NCCCCc2ccccc2)c(Br)c(=O)[nH]1
inactive: [3] 98 % of control | dose: 50.0 mg/kg/injection, schedule: Q01DX001 (ip), vehicle: saline with Tween-80 97 % of control | dose: 100.0 mg/kg/injection, schedule: Q01DX001 (ip), vehicle: saline with Tween-80 98 % of control

CCCCCCCCCCCCSC(=S)N(CC)CC
inactive: dose: 87.5 mg/kg/injection, schedule: Q01DX009 (ip), vehicle: other 89 % of control | dose: 175.0 mg/kg/injection, schedule: Q01DX009 (ip), vehicle: other 93 % of control | dose: 350.0 mg/kg/injection, schedule: Q01DX009 (ip), vehicle: other 97 % of control

CC12CCC3C4CCC(O)CC4=CCC3C1CCC2=O (stereo unspecified)
inactive: dose: 50.0 mg/kg/injection, schedule: Q01DX001 (ip), vehicle: Klucel (hydroxypropylcellulose) (HPC) 107 % of control | dose: 100.0 mg/kg/injection, schedule: Q01DX001 (ip), vehicle: Klucel (hydroxypropylcellulose) (HPC) 104 % of control and 107 % of control | dose: 200.0 mg/kg/injection, schedule: Q01DX001 (ip), vehicle: Klucel (hydroxypropylcellulose) (HPC) 92 % of control | dose: 400.0 mg/kg/injection, schedule: Q01DX001 (ip), vehicle: Klucel (hydroxypropylcellulose) (HPC) 104 % of control

O=C1/C(=C/c2ccc3c(c2)OCO3)C2CCC(N2)/C1=C\c1ccc2c(c1)OCO2
inactive: [14] 89 % of control | [15] 101 % of control

CC(C)(C)N=NC1(S(=O)(=O)c2ccccc2)CCCCC1
inactive: [7] 98 % of control | [8] 93 % of control | [9] 91 % of control
